Several values for one entry are separate records, joined by “and”; a condition that tells them apart may be missing. Equal values may be shown once.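 Results reflect a 48-hour exposure of cells in 96-well plates to compound at five concentrations. At the GI50, growth is halved. The concentration for full growth arrest is given as TGI.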
Assays:
Assay in all cases: DTP human tumour cell line panel, 48 h
[1] = test system: SR leukemia
[2] = test system: NCI-H460 lung
[3] = test system: CAKI-1 renal
[4] = test system: MOLT-4 leukemia
[5] = test system: OVCAR-4 ovarian
[6] = test system: CCRF-CEM leukemia
[7] = test system: MDA-N
[8] = test system: BT-549 breast
[9] = test system: SF-539 CNS
[10] = test system: MCF7 breast
[11] = test system: RXF 393 renal
[12] = test system: HS 578T breast

Structure (SMILES) | TGI [1] | TGI [2] | TGI [3] | TGI [4] | TGI [5] | TGI [6] [µM] | TGI [7] | TGI [8] | TGI [9] | TGI [10] | TGI [11] | TGI [12] [µM] | GI50 [1] [µM] | GI50 [4] [µM] | GI50 [10] [µM] | GI50 [7] [µM]
O=C(N=Nc1cccc(Cl)c1)NNc1cccc(Cl)c1 | 90.7 µM | 34.2 µM | 91.1 µM | 42.7 µM | 52.6 µM | 48.5 | 31.2 µM | – | – | – | – | – | – | – | – | –
CN(C)S(=O)(=O)/N=C/c1cccc(/C=N/S(=O)(=O)N(C)C)c1 | – | > 100 µM | > 100 µM | > 100 µM | > 100 µM | > 100 | > 100 µM | > 100 µM | > 100 µM | > 100 µM | – | – | – | – | – | –
CC1(C)C(O)C[C@@H](O)[C@@]2(C)C1CC[C@]1(C)C2C[C@@H](O)[C@@H]2C([C@@]3(C)CC[C@@H](C(C)(C)O)O3)CCC21C (stereo not given in full) | > 100 µM | 35.9 µM | 42.1 µM | 67.7 µM | 37.9 µM | > 66.1 | – | – | 27.5 µM | – | 27.1 µM | – | – | – | – | –
CNC(=O)N(CCC#N)CCCN(C(=O)NC)c1ccccc1 | > 100 µM | > 100 µM | > 100 µM | > 100 µM | > 100 µM | > 100 | > 100 µM | > 100 µM | > 100 µM | > 100 µM | > 100 µM | – | – | – | – | –
O=C1NC(=O)C2(CCCCCC2)N1 | – | > 100 µM | > 100 µM | > 100 µM | > 100 µM | > 100 | > 100 µM | > 100 µM | > 100 µM | > 100 µM | > 100 µM | > 100 | – | – | – | –
COC(CC1(/C=C/O[Si](C(C)C)(C(C)C)C(C)C)C(=O)N(C)c2ccccc21)OC (stereo not given) | > 100 µM | > 100 µM | > 100 µM | > 100 µM | > 100 µM | > 100 | > 100 µM | – | – | > 100 µM | > 100 µM | 45.2 | – | – | – | –
CO[C@@H]1C=C[C@@]23c4cc5c(cc4C(=O)O[C@H]2CN(C)[C@H]3C1)OCO5 | > 100 µM | > 100 µM | – | > 100 µM | > 100 µM | > 100 | – | – | > 100 µM | – | > 100 µM | – | – | – | – | –
CN(N)c1cc(=O)[nH]c(=O)[nH]1 | > 100 µM | > 100 µM | > 100 µM | > 100 µM | > 100 µM | > 100 | > 100 µM | 50.6 µM | > 100 µM | – | – | > 100 | – | – | – | –
c1cc2c(c(NC3=NCCO3)c1)CCC2 | > 100 µM | > 100 µM | > 100 µM | > 100 µM | > 100 µM | > 100 | > 100 µM | – | > 100 µM | > 100 µM | > 100 µM | > 100 | – | – | – | –
COc1ccc2[nH]cc([C@@H]3C4CCC(C4)[C@H]3NCc3cccc(CN[C@H]4C5CCC(C5)[C@@H]4c4c[nH]c5ccc(OC)cc45)c3)c2c1 | 0.78 µM and 1 µM | 0.556 µM and 1.12 µM | 2.79 µM and 3.21 µM | 3.76 µM and 1.29 µM | 2.77 µM and 2.75 µM | 1.08 | 2.04 µM and 2.2 µM | 3.16 µM and 3.18 µM | 3.21 µM and 2.5 µM | 2.25 µM and 2.86 µM | 3.1 µM and 2.79 µM | – | 0.28 | 1.56 | 0.805 | 0.776
CC1=CC[C@@]2(CO)[C@@H]([C@@H]1C)[C@H]1CC[C@@H]3[C@@]4(C)CC[C@H](O)C(C)(C)[C@@H]4CC[C@@]3(C)[C@]1(C)C[C@@H]2O | – | > 100 µM | > 100 µM | > 100 µM | > 100 µM | > 100 | > 100 µM | 59.2 µM | – | > 100 µM | 25.7 µM | > 100 | – | – | – | –
CCOC(=O)[C@@]12C[C@](/C=C/OC)(O[Si](C)(C)C)[C@@]13c1cc(OC)c(OC)cc1CCN3C(=O)C2O (stereo not given in full) | > 100 µM | > 100 µM | > 100 µM | > 100 µM | > 100 µM | > 100 | > 100 µM | – | > 100 µM | > 100 µM | > 100 µM | > 100 | – | – | – | –
Clc1cc(Cl)cc(C2ON=C(c3ccccc3)N2C23CC4CC(CC(C4)C2)C3)c1 (stereo not given) | – | > 10 µM | > 10 µM | > 10 µM | > 10 µM | > 10 | > 10 µM | > 10 µM | > 10 µM | > 10 µM | > 10 µM | > 10 | – | – | – | –
COc1cc(C2C(C#N)=C(N)OC3=C2CCS(=O)(=O)c2ccc(C)cc23)cc(OC)c1OC (stereo not given) | > 100 µM | > 100 µM | > 100 µM | – | > 100 µM | > 100 | > 100 µM | > 100 µM | – | – | – | > 100 | – | – | – | –
COC(=O)/C=C1/CCC(C)(C(=O)NS(=O)(=O)c2ccc(C)cc2)C1(C)C (stereo not given) | – | > 100 µM | > 100 µM | > 100 µM | > 100 µM | > 100 | > 100 µM | > 100 µM | > 100 µM | > 100 µM | > 100 µM | – | – | – | – | –
O=C(O)c1ccc(NC(NC(=O)C(C(F)(F)F)C(F)(F)F)(C(F)(F)F)C(F)(F)F)cc1 | > 100 µM | – | > 100 µM | > 100 µM | – | > 100 | > 100 µM | > 100 µM | > 100 µM | – | > 100 µM | > 100 | – | – | – | –
CC(C)(C)Nc1noc(=O)n1C(C)(C)C | > 100 µM | > 100 µM | > 100 µM | > 100 µM | > 100 µM | > 100 | > 100 µM | – | > 100 µM | > 100 µM | > 100 µM | > 100 | – | – | – | –
Cc1ccc(S(=O)(=O)N2CCSCCN(S(=O)(=O)c3ccc(C)cc3)CCN(S(=O)(=O)c3ccc(C)cc3)CC2)cc1 | – | > 100 µM | – | > 100 µM | > 100 µM | > 100 | > 100 µM | 70.5 µM | 56.8 µM | > 100 µM | > 100 µM | > 100 | – | – | – | –
CCc1n[nH]c(=O)n1/N=C/c1ccc(C)cc1 | – | > 100 µM | > 100 µM | > 100 µM | > 100 µM | > 100 | > 100 µM | > 100 µM | > 100 µM | > 100 µM | > 100 µM | 44.3 | – | – | – | –
N/N=C(\C(=O)Nc1ccc(Cl)cc1Cl)C(c1cnc2ccccc2n1)[N+](=O)[O-] (stereo not given) | – | > 100 µM | > 100 µM | – | > 100 µM | > 100 | > 100 µM | > 100 µM | > 100 µM | > 100 µM | > 100 µM | > 100 | – | – | – | –

Source: PubChem BioAssay (NCI)
